According to the OligoGym collection:
HELM strings list units from the 5' end as sugar, base in round brackets, then linkage (d deoxyribose, r ribose, m 2'-O-methyl, p phosphodiester). Strings are as the collection lists them; they lack the last nucleoside at the 3' end of the tested compound. [moe] = 2'-O-(2-methoxyethyl) (MOE); [sp] = phosphorothioate linkage; [m5C] = 5-methylcytosine

Each substance was assayed against UBE3A-ATS (assay: mouse, dose not given). Details: ASO.

Substance | 3 h FOB score [score 0-7]
RNA1{[moe](G)[sp].[moe](T)p.[moe](A)p.[moe]([m5C])p.[moe](A)p.d(A)[sp].d(T)[sp].d(G)[sp].d([m5C])[sp].d(A)[sp].d(T)[sp].d(G)[sp].d(T)[sp].d(G)[sp].d(G)[sp].[moe](G)p.[moe]([m5C])p.[moe]([m5C])[sp].[moe](T)}$$$$ (last 3' nucleoside missing) | 4
RNA1{[moe](G)[sp].[moe](T)p.[moe](A)p.[moe]([m5C])p.[moe](A)p.d([m5C])[sp].d(T)[sp].d(A)[sp].d(T)[sp].d(T)[sp].d(G)[sp].d(T)[sp].d(T)[sp].d(T)[sp].d(T)[sp].[moe](G)p.[moe](A)p.[moe](T)[sp].[moe](A)}$$$$ (last 3' nucleoside missing) | 2.5
RNA1{[moe](G)[sp].[moe](T)p.[moe](A)p.[moe]([m5C])p.[moe](T)p.d([m5C])[sp].d(A)[sp].d(T)[sp].d([m5C])[sp].d(A)[sp].d(T)[sp].d(G)[sp].d(A)[sp].d(T)[sp].d([m5C])[sp].[moe](T)p.[moe](T)p.[moe](G)[sp].[moe](G)}$$$$ (last 3' nucleoside missing) | 2
RNA1{[moe](G)[sp].[moe](T)p.[moe](G)p.[moe](A)[sp].d(G)[sp].d([m5C])[sp].d(T)[sp].d(A)[sp].d(T)[sp].d([m5C])[sp].d(T)[sp].d(G)[sp].[moe](T)p.[moe](A)p.[moe]([m5C])p.[moe](A)[sp].[moe](A)}$$$$ (last 3' nucleoside missing) | 1.7
RNA1{[moe](G)[sp].[moe](T)p.[moe](G)p.[moe](A)p.[moe](G)[sp].d([m5C])[sp].d(T)[sp].d(A)[sp].d(T)[sp].d([m5C])[sp].d(T)[sp].d(G)[sp].d(T)[sp].[moe](A)p.[moe]([m5C])p.[moe](A)[sp].[moe](A)}$$$$ (last 3' nucleoside missing) | 1
RNA1{[moe](G)[sp].[moe](T)p.[moe](G)p.[moe](A)p.[moe](G)p.[moe]([m5C])[sp].d(T)[sp].d(A)[sp].d(T)[sp].d([m5C])[sp].d(T)[sp].d(G)[sp].d(T)[sp].d(A)[sp].[moe]([m5C])p.[moe](A)[sp].[moe](A)}$$$$ (last 3' nucleoside missing) | 4.7
RNA1{[moe](G)[sp].[moe](T)p.[moe](G)p.[moe](A)p.[moe](G)p.[moe]([m5C])p.d(T)[sp].d(A)[sp].d(T)[sp].d([m5C])[sp].d(T)[sp].d(G)[sp].d(T)[sp].d(A)[sp].d([m5C])[sp].d(A)[sp].[moe](A)p.[moe](A)[sp].[moe](A)}$$$$ (last 3' nucleoside missing) | 1.3
RNA1{[moe](G)[sp].[moe](T)p.[moe](G)p.[moe](A)p.[moe](G)p.d([m5C])[sp].d(T)[sp].d(A)[sp].d(T)[sp].d([m5C])[sp].d(T)[sp].d(G)[sp].d(T)[sp].d(A)[sp].d([m5C])[sp].[moe](A)p.[moe](A)p.[moe](A)[sp].[moe](A)}$$$$ (last 3' nucleoside missing) | 3.2
RNA1{[moe](G)[sp].[moe](T)p.[moe](G)p.[moe](A)p.[moe](G)p.d([m5C])[sp].d(T)[sp].d(T)[sp].d(T)[sp].d(A)[sp].d([m5C])[sp].d(T)[sp].d([m5C])[sp].d(T)[sp].d(G)[sp].[moe]([m5C])p.[moe](A)p.[moe](A)[sp].[moe](T)}$$$$ (last 3' nucleoside missing) | 1
RNA1{[moe](G)[sp].[moe](T)p.[moe](G)p.[moe](A)p.d(G)[sp].d([m5C])[sp].d(T)[sp].d(A)[sp].d(T)[sp].d([m5C])[sp].d(T)[sp].d(G)[sp].d(T)[sp].d(A)[sp].[moe]([m5C])p.[moe](A)p.[moe](A)p.[moe](A)[sp].[moe](A)}$$$$ (last 3' nucleoside missing) | 4
RNA1{[moe](G)[sp].[moe](T)p.[moe](G)p.[moe](G)p.[moe](T)p.d(T)[sp].d(G)[sp].d([m5C])[sp].d([m5C])[sp].d(T)[sp].d(T)[sp].d(A)[sp].d(G)[sp].d(T)[sp].d(A)[sp].[moe](T)p.[moe](T)p.[moe](A)[sp].[moe]([m5C])}$$$$ (last 3' nucleoside missing) | 2.2
RNA1{[moe](G)[sp].[moe](T)p.[moe](G)p.[moe](G)p.[moe](T)p.d(T)[sp].d(T)[sp].d([m5C])[sp].d([m5C])[sp].d(A)[sp].d(G)[sp].d([m5C])[sp].d(A)[sp].d(G)[sp].d(G)[sp].[moe](G)p.[moe](T)p.[moe](G)[sp].[moe](T)}$$$$ (last 3' nucleoside missing) | 5.8
RNA1{[moe](G)[sp].[moe](T)p.[moe](G)p.[moe](G)p.[moe](T)p.d([m5C])[sp].d(A)[sp].d(G)[sp].d(A)[sp].d(T)[sp].d(T)[sp].d([m5C])[sp].d([m5C])[sp].d(T)[sp].d(A)[sp].[moe](A)p.[moe](A)p.[moe](T)[sp].[moe](A)}$$$$ (last 3' nucleoside missing) | 0
RNA1{[moe](G)[sp].[moe](T)p.[moe](G)p.[moe](T)p.[moe](G)p.[moe](T)p.d(T)[sp].d(T)[sp].d(T)[sp].d(T)[sp].d([m5C])[sp].d([m5C])[sp].d(A)[sp].d(T)[sp].d(T)[sp].d(T)[sp].[moe](T)p.[moe](T)[sp].[moe]([m5C])}$$$$ (last 3' nucleoside missing) | 0
RNA1{[moe](G)[sp].[moe](T)p.[moe](G)p.[moe](T)p.[moe](G)p.d(G)[sp].d(A)[sp].d(T)[sp].d(G)[sp].d(G)[sp].d(T)[sp].d(A)[sp].d(T)[sp].d([m5C])[sp].d([m5C])[sp].[moe](T)p.[moe](G)p.[moe](G)[sp].[moe](T)}$$$$ (last 3' nucleoside missing) | 5.5
RNA1{[moe](G)[sp].[moe](T)p.[moe](G)p.[moe](T)p.[moe](G)p.d(T)[sp].d(G)[sp].d([m5C])[sp].d(A)[sp].d(A)[sp].d(T)[sp].d(A)[sp].d(G)[sp].d([m5C])[sp].d([m5C])[sp].[moe](T)p.[moe](A)p.[moe](A)[sp].[moe](A)}$$$$ (last 3' nucleoside missing) | 3.5
RNA1{[moe](G)[sp].[moe](T)p.[moe](G)p.[moe](T)p.[moe](G)p.d(T)[sp].d(T)[sp].d(T)[sp].d(T)[sp].d(T)[sp].d([m5C])[sp].d([m5C])[sp].d(A)[sp].d(T)[sp].d(T)[sp].[moe](T)p.[moe](T)p.[moe](T)[sp].[moe]([m5C])}$$$$ (last 3' nucleoside missing) | 0
RNA1{[moe](G)[sp].[moe](T)p.[moe](G)p.[moe](T)p.[moe](G)p.d([m5C])[sp].d([m5C])[sp].d(A)[sp].d(T)[sp].d(A)[sp].d(G)[sp].d(G)[sp].d(T)[sp].d(T)[sp].d(T)[sp].[moe]([m5C])p.[moe](A)p.[moe](G)[sp].[moe](G)}$$$$ (last 3' nucleoside missing) | 2.8
RNA1{[moe](G)[sp].[moe](T)p.[moe](G)p.[moe](T)p.[moe](T)p.[moe](T)p.d(T)[sp].d(T)[sp].d([m5C])[sp].d([m5C])[sp].d(A)[sp].d(T)[sp].d(T)[sp].d(T)[sp].d(T)[sp].d(T)[sp].[moe]([m5C])p.[moe](T)[sp].[moe]([m5C])}$$$$ (last 3' nucleoside missing) | 0
RNA1{[moe](G)[sp].[moe](T)p.[moe](G)p.[moe](T)p.[moe](T)p.d(T)[sp].d(A)[sp].d(T)[sp].d([m5C])[sp].d([m5C])[sp].d(A)[sp].d(A)[sp].d(A)[sp].d([m5C])[sp].d([m5C])[sp].[moe](A)p.[moe](A)p.[moe](G)[sp].[moe](G)}$$$$ (last 3' nucleoside missing) | 3
RNA1{[moe](G)[sp].[moe](T)p.[moe](G)p.[moe](T)p.[moe](T)p.d(T)[sp].d(T)[sp].d(T)[sp].d([m5C])[sp].d([m5C])[sp].d(A)[sp].d(T)[sp].d(T)[sp].d(T)[sp].d(T)[sp].[moe](T)p.[moe]([m5C])p.[moe](T)[sp].[moe]([m5C])}$$$$ (last 3' nucleoside missing) | 0
RNA1{[moe](G)[sp].[moe](T)p.[moe](G)p.[moe](T)p.[moe]([m5C])p.d(A)[sp].d(T)[sp].d(A)[sp].d(T)[sp].d(G)[sp].d(T)[sp].d(A)[sp].d(G)[sp].d([m5C])[sp].d(A)[sp].[moe](A)p.[moe](T)p.[moe](T)[sp].[moe](A)}$$$$ (last 3' nucleoside missing) | 6.5
RNA1{[moe](G)[sp].[moe](T)p.[moe](G)p.[moe](T)p.d(G)[sp].d(T)[sp].d(T)[sp].d(T)[sp].d(T)[sp].d(T)[sp].d([m5C])[sp].d([m5C])[sp].d(A)[sp].d(T)[sp].[moe](T)p.[moe](T)p.[moe](T)p.[moe](T)[sp].[moe]([m5C])}$$$$ (last 3' nucleoside missing) | 0
RNA1{[moe](G)[sp].[moe](T)p.[moe](G)p.[moe](T)p.d(T)[sp].d(T)[sp].d(T)[sp].d(T)[sp].d([m5C])[sp].d([m5C])[sp].d(A)[sp].d(T)[sp].d(T)[sp].d(T)[sp].[moe](T)p.[moe](T)p.[moe]([m5C])p.[moe](T)[sp].[moe]([m5C])}$$$$ (last 3' nucleoside missing) | 0
RNA1{[moe](G)[sp].[moe](T)p.[moe](G)p.[moe]([m5C])[sp].d(A)[sp].d(T)[sp].d(A)[sp].d([m5C])[sp].d([m5C])[sp].d([m5C])[sp].d(A)[sp].d(G)[sp].[moe](G)p.[moe](G)p.[moe](T)p.[moe](A)[sp].[moe](G)}$$$$ (last 3' nucleoside missing) | 1
RNA1{[moe](G)[sp].[moe](T)p.[moe](G)p.[moe]([m5C])p.[moe](A)[sp].d(T)[sp].d(A)[sp].d([m5C])[sp].d([m5C])[sp].d([m5C])[sp].d(A)[sp].d(G)[sp].d(G)[sp].[moe](G)p.[moe](T)p.[moe](A)[sp].[moe](G)}$$$$ (last 3' nucleoside missing) | 5.5
RNA1{[moe](G)[sp].[moe](T)p.[moe](G)p.[moe]([m5C])p.[moe](A)p.[moe](T)[sp].d(A)[sp].d([m5C])[sp].d([m5C])[sp].d([m5C])[sp].d(A)[sp].d(G)[sp].d(G)[sp].d(G)[sp].[moe](T)p.[moe](A)[sp].[moe](G)}$$$$ (last 3' nucleoside missing) | 4
